Data published in article PMC9414910, “Optimized ^68Ga-Labeled Urea-Based PSMA-Targeted PET Tracers for Prostate Cancer” (Pharmaceuticals, 2022).

Key:
22Rv1 tumor-bearing mice = experiment: Biodistribution in 22Rv1 tumor-bearing mice; details: for Uptake Blood, Mean / Uptake Bone, Mean / Uptake Heart, Mean / Uptake Kidney, Mean / Uptake Liver, Mean / Uptake Lung, Mean / Uptake Muscle, Mean / Uptake Spleen, Mean / Uptake Tumor (22Rv1), Mean: 0.74 MBq, n = 3; for Clearance profile in the kidneys: within 60 min p.i.
Procedure: (§1) The animal studies were approved by the institutional animal care and use committee of the Chinese PLA General Hospital. Healthy male ICR mice were injected with either a novel radiotracer (37 MBq in 150 μL) or saline (150 μL) for the radiotoxicity evaluation. […] Biodistribution and micro-PET studies were performed on 22Rv1 and PC-3 xenograft models, and 2-PMPA was used as the PSMA blocker (all details are shown in the Supplementary Materials).
BALB/c nude mice (male, 4-6 weeks) were inoculated subcutaneously with […]
100 mm3, the mice underwent biodistribution study and Micro-PET imaging.
The 22Rv1 tumor-bearing mice were injected with each novel radiotracer or […]
[…] Mice were sacrificed at different time points p.i. (10 min, 30 min, 60 min), tumors and interested organs were harvested, weighed and measured by a γ-counter, the results were expressed as the percentage of injected dose per gram (ID%/g).
Table S1. Uptake values for ex vivo tissues of [ 68Ga]Ga-PSMA-Q (0.74 MBq/mice) in 22Rv1 tumor-bearing mice (10, 30 and 60 min p.i., n = 3/time point).

[1] = Partition coefficient, octanol–water system; format: physicochemical; details: octanol–water (v/v = 1:1), n = 3
Procedure: The partition coefficient of each novel radiotracer was determined using an octanol–water system (v/v = 1:1). The in vitro stability was determined using two systems (PBS and 5% BSA). The Ki value was measured by the NAALADase assay. The 22Rv1 and PC-3 cell lines were used for the cell-binding study and establishment of the tumor-bearing model (detailed information is shown in the Supplementary Materials).
PBS) and reported as log p ± SD. […]

22Rv1 tumors = experiment: Micro-PET imaging in 22Rv1 tumor-bearing mice; format: in vivo; details: 22Rv1 tumor, 60 min p.i., 7.4 MBq
Procedure: as §1
Table S9. Tumor-to-mu scle (T/M) ratio and tumor- to-kidney (T/K) rati o of radiotracers at 60 min p.i.
The Mice bearing 22Rv1 and PC-3 (n = 3/group) xenograft tumors were […]
Co-injection with 2-PMPA (50 μ g) and each novel tracer (7.4 MBq in 150 μL) was used for blocking. Then the mice were anesthetized with 3% (v/v) isoflurane and underwent Micro-PET scans with continuous 1% (v/v) isoflurane. The images were acquired at 60 min p.i.. In comparison, […]
into another group of mice (n = 3), and Micro-PET schedule was performed as […]
Imaging was performed on a Super Nova PET/CT scanner using a 100-mm-transaxial field of view for PET and 110-mm for CT.
Three-dimensional ordered-subsets expectation maximization reconstruction

22Rv1 cells (mild PSMA+) = experiment: Cell uptake / binding in 22Rv1 cells; format: cell-based, human; details: 60 min incubation, 37 °C
Description: Cell lines were kindly provided by the stem cell bank of the Chinese Academy of Sciences. The human prostate cancer epithelial cell lines 22Rv1 (mild PSMA+) and PC-3 (with no PSMA receptor) were used to evaluate the specific cell-binding affinity of the radiotracers, and the results were expressed as percentages of injected activity, IA%/10^6.
Cell Lines and Culture Condition
Cell lines were kindly provided by the stem cell bank, the Chinese Academy of Sciences. The human prostate cancer cell lines 22Rv1 ( mild PSMA positive) and PC3 (PSMA negative) were cultured in RPMI 1640 medium or F12K medium (CORNING, America), supplemented with 10% Fetal Bovine Serum
(GIBCO, The Netherlands) and 1% penicillin-streptomycin (CORNING, America) in a humidified incubator at 37 °C under 5% CO2. Each cell line was passaged when it was at around 80-90% confluence, and harvested using trypsin-ethylenediaminetetraacetic acid (trypsin-EDTA; 0.25% trypsin, 0.02% EDTA, all from KeyGEN BioTECH).
Cells were seeded separately in 24 well plates (1 x 10^5 cells in 1 mL medium/well) and incubated overnight, the medium was changed 2 h before the experiment. For the binding experiments, cells were incubated with novel […]
min, 30 min and 60 min (6 wells/time point). After incubation, the medium was removed and the cells were washed twice with ice-cold phosphate-buffered saline (0.5 mL). Finally, the cells were lysed by NaOH (0.5 M, 0.5 mL). Coincubation of 2-(phosphonomethyl) pentane-1,5-dioic acid […]
(2-PMPA) solution (2 μg/well) and each radiotracer for 60 min was conducted as the blocking experiment. The radioactivity of cells was measured by a γ-counter. The studies were performed in triplicate and the results were reported as the percentage injected activity (IA%/10^6 cells). […]

[2] = Blood pharmacokinetics in male ICR mice; format: in vivo; details: 7.4 MBq i.v., two-compartment model
Procedure: Injection of novel radiotracers or [68Ga]Ga-PSMA-617 or [68Ga]Ga-PSMA-11 […]
mice (5 mice/group), and the blood sample (5 μL) of each mouse was collected by cutting down the tail end at different time points post injection. The radioactivity of blood samples were measured by a γ-counter and the pharmacokinetics data was calculated using the WinNonlin software.
Figure S3. Time-activity curves of the blood samplesafter injection of 7.4 MBq of [68Ga]Ga-PSMA-4PY (A), [68Ga]Ga-PSMA-Q (B),[68Ga]Ga-PSMA-P (C), [68Ga]Ga-PSMA-617 (D), [68Ga]Ga-PSMA-11 (E), [68Ga]Ga-PSMA-Q-1 (F), [68Ga]Ga-PSMA-Q-2 (G) and [68Ga]Ga-PSMA-Q-3 (H).
(1 picture or pasted object on this page, not shown here)

[3] = biodistribution, 22Rv1 tumor-bearing mice, 60 min p.i.

SMILES | Uptake Blood, Mean (22Rv1 tumor-bearing mice; 10 min p.i.) [ID%/g] | Uptake Bone, Mean (22Rv1 tumor-bearing mice; 10 min p.i.) [ID%/g] | Uptake Heart, Mean (22Rv1 tumor-bearing mice; 10 min p.i.) [ID%/g] | Uptake Kidney, Mean (22Rv1 tumor-bearing mice; 10 min p.i.) [ID%/g] | Uptake Liver, Mean (22Rv1 tumor-bearing mice; 10 min p.i.) [ID%/g] | Uptake Lung, Mean (22Rv1 tumor-bearing mice; 10 min p.i.) [ID%/g] | Uptake Muscle, Mean (22Rv1 tumor-bearing mice; 10 min p.i.) [ID%/g] | Uptake Spleen, Mean (22Rv1 tumor-bearing mice; 10 min p.i.) [ID%/g] | Uptake Tumor (22Rv1), Mean (22Rv1 tumor-bearing mice; 10 min p.i.) [ID%/g] | Uptake Blood, Mean (22Rv1 tumor-bearing mice; 30 min p.i.) [ID%/g] | Uptake Bone, Mean (22Rv1 tumor-bearing mice; 30 min p.i.) [ID%/g] | Uptake Kidney, Mean (22Rv1 tumor-bearing mice; 30 min p.i.) [ID%/g] | Uptake Liver, Mean (22Rv1 tumor-bearing mice; 30 min p.i.) [ID%/g] | Uptake Lung, Mean (22Rv1 tumor-bearing mice; 30 min p.i.) [ID%/g] | Uptake Muscle, Mean (22Rv1 tumor-bearing mice; 30 min p.i.) [ID%/g] | Uptake Spleen, Mean (22Rv1 tumor-bearing mice; 30 min p.i.) [ID%/g] | Uptake Tumor (22Rv1), Mean (22Rv1 tumor-bearing mice; 30 min p.i.) [ID%/g] | Uptake Blood, Mean (22Rv1 tumor-bearing mice; 60 min p.i.) [ID%/g] | Uptake Bone, Mean (22Rv1 tumor-bearing mice; 60 min p.i.) [ID%/g] | Uptake Heart, Mean (22Rv1 tumor-bearing mice; 60 min p.i.) [ID%/g] | also measured
O=C([O-])CN1CCN(CC(=O)[O-])CCN(CC(=O)NCC2CCC(C(=O)NC(Cc3ccncc3)C(=O)NCCCCC(NC(=O)NC(CCC(=O)O)C(=O)O)C(=O)O)CC2)CCN(CC(=O)O)CC1.[68Ga+3] (centres unmarked) [[^68Ga]Ga-PSMA-4PY] | 1.68 | 0.56 | 1.87 | 2.15 | 1.53 | 0.83 | 0.67 | 0.59 | 1.56 | 0.68 | 0.28 | 2.08 | 0.78 | 0.50 | 0.31 | 0.47 | 1.83 | 0.21 | 0.21 | 0.58 | Uptake Heart, Mean (22Rv1 tumor-bearing mice; 30 min p.i.): 0.86 ID%/g; Uptake Liver, Mean (22Rv1 tumor-bearing mice; 60 min p.i.): 0.47 ID%/g; Uptake Lung, Mean (22Rv1 tumor-bearing mice; 60 min p.i.): 0.25 ID%/g; Uptake Muscle, Mean (22Rv1 tumor-bearing mice; 60 min p.i.): 0.14 ID%/g; Uptake Spleen, Mean (22Rv1 tumor-bearing mice; 60 min p.i.): 0.33 ID%/g; Uptake Tumor (22Rv1), Mean (22Rv1 tumor-bearing mice; 60 min p.i.): 2.15 ID%/g; Uptake Tumor (22Rv1), Mean (22Rv1 tumor-bearing mice; 60 min p.i., listed as [^68Ga]Ga-PSMA-Q-4PY): 2.15 ± 0.46 ID%/g; Clearance profile in the kidneys (22Rv1 tumor-bearing mice): remained relatively stable; Log p pH = 7.4 [1]: −3.49 ± 0.01; SUVmax of tumor (22Rv1 tumors): 0.69 ± 0.26; Uptake in 22Rv1 cells (22Rv1 cells (mild PSMA+)): 3.01 ± 0.47 IA%/10^6; Elimination half-life [2]: 15.15 ± 0.32 min
O=C([O-])CN(CCN(CC(=O)[O-])Cc1cc(CCC(=O)NCCCCCC(=O)NCCCC[C@H](NC(=O)N[C@@H](CCC(=O)O)C(=O)O)C(=O)O)ccc1[O-])Cc1cc(CCC(=O)O)ccc1[O-].[68Ga+3].[OH3+] [[^68Ga]Ga-PSMA-11, reference compound] | 2.28 | 0.72 | 2.54 | 10.20 | 1.53 | 0.77 | 0.81 | 0.99 | 1.61 | 0.91 | 0.30 | 2.76 | 0.78 | 0.53 | 0.30 | 0.53 | 1.90 | 0.22 | 0.17 | 0.53 | Uptake Kidney, Mean (22Rv1 tumor-bearing mice; 60 min p.i.): 1.61 ID%/g; Uptake Liver, Mean (22Rv1 tumor-bearing mice; 60 min p.i.): 0.47 ID%/g; Uptake Lung, Mean (22Rv1 tumor-bearing mice; 60 min p.i.): 0.21 ID%/g; Uptake Muscle, Mean (22Rv1 tumor-bearing mice; 60 min p.i.): 0.14 ID%/g; Uptake Spleen, Mean (22Rv1 tumor-bearing mice; 60 min p.i.): 0.40 ID%/g; Uptake Tumor (22Rv1), Mean (22Rv1 tumor-bearing mice; 60 min p.i.): 2.38 ID%/g; SUVmax of tumor (22Rv1 tumors): 0.76 ± 0.18; Uptake in 22Rv1 cells (22Rv1 cells (mild PSMA+)): 3.19 ± 0.27 IA%/10^6; Elimination half-life [2]: 16.69 ± 1.77 min
O=C([O-])CN1CCN(CC(=O)[O-])CCN(CC(=O)NCCCCCC(=O)NC(Cc2cnc3ccccc3c2)C(=O)NCCCCC(NC(=O)NC(CCC(=O)O)C(=O)O)C(=O)O)CCN(CC(=O)O)CC1.[68Ga+3] (centres unmarked) [[^68Ga]Ga-PSMA-Q-2] | 1.87 | 1.12 | 1.76 | 13.88 | 1.62 | 0.83 | 0.65 | 2.34 | 1.34 | 0.69 | 0.71 | 20.74 | 1.21 | 0.61 | 0.37 | 1.41 | 1.87 | 0.47 | 0.53 | 0.50 | Uptake Heart, Mean (22Rv1 tumor-bearing mice; 30 min p.i.): 1.08 ID%/g; Uptake Kidney, Mean (22Rv1 tumor-bearing mice; 60 min p.i.): 26.62 ID%/g; Uptake Liver, Mean (22Rv1 tumor-bearing mice; 60 min p.i.): 0.52 ID%/g; Uptake Lung, Mean (22Rv1 tumor-bearing mice; 60 min p.i.): 0.55 ID%/g; Uptake Muscle, Mean (22Rv1 tumor-bearing mice; 60 min p.i.): 0.16 ID%/g; Uptake Spleen, Mean (22Rv1 tumor-bearing mice; 60 min p.i.): 1.05 ID%/g; Uptake Tumor (22Rv1), Mean (22Rv1 tumor-bearing mice; 60 min p.i.): 2.15 ± 0.33 ID%/g; Uptake Tumor (22Rv1), Mean (22Rv1 tumor-bearing mice; 60 min p.i., listed as [68Ga]Ga-PSMA-Q-2): 2.15 ID%/g; Tumor-to-kidney (T/K) ratio (22Rv1 tumor-bearing mice; [3]): 0.08 ± 0.02; Tumor-to-muscle (T/M) ratio (22Rv1 tumor-bearing mice; [3]): 13.41 ± 0.39; Clearance profile in the kidneys (22Rv1 tumor-bearing mice): continuously accumulated in the kidneys; SUVmax of tumor (22Rv1 tumors): 0.47 ± 0.11; Uptake in 22Rv1 cells (22Rv1 cells (mild PSMA+)): 2.99 ± 0.15 IA%/10^6; Elimination half-life [2]: 20.22 ± 0.97 min
